Reference: paper PMC8491550 (Journal of Medicinal Chemistry, 2021)
“Also recorded” adds a separate entry of the source. Read-outs that look alike come from different tables or passages of the source.

Tests used:
[1] = system: SARS-CoV-2 (USA_WA01/2020) in Vero E6 cells; assay: Antiviral assay in SARS-CoV-2-infected Vero E6 cells; format: cell-based; conditions: read-out: Antiviral EC50, MOI 0.01, 72 h, cell proliferation
[2] = biological target: T1, SARS-CoV-2 M^pro (Severe acute respiratory syndrome coronavirus 2, UniProt P0DTD1); assay: Preincubation dilution experiment; format: biochemical
[3] = biological target: T1, SARS-CoV-2 M^pro; assay: Steady-state enzyme kinetics, inhibition mechanism; format: biochemical
[4] = system: SARS-CoV-2 USA-WA1/2020 in human iPSC-derived lung organoids
[5] = 10 μM preincubation 30 min, 10× dilution

## 2-(4-Chlorophenyl)benzo[d][1,2]selenazol-3(2H)-one [Compound E15]
[1]
  EC50: 11.2 ± 1.3 µM

## O=c1c2ccccc2[se]n1-c1ccccc1 [Compound E01, 2-Phenylbenzo[d][1,2]selenazol-3(2H)-one, reference compound]
[2]
  type of inhibition from preincubation dilution: reversible covalent inhibitor
[3]
  mechanism of inhibition: likely competitive inhibitors

## O=c1c2ccccc2[se]n1-c1ccc(C(F)(F)F)cc1 [Compound E04, 2-(4-(Trifluoromethyl)phenyl)benzo[d][1,2]selenazol-3(2H)-one]
[2]; [5]
  type of inhibition from preincubation dilution: rapidly reversible inhibitor
[3]; 0.5-10 μM inhibitor, 1.5-30 μM substrate, global fit to mixed model
  mechanism of inhibition: likely competitive inhibitors

## COc1ccc(Cn2[se]c3ccccc3c2=O)c(OC)c1 [Compound E07, 2-(2,4-Dimethoxybenzyl)benzo[d][1,2]selenazol-3(2H)-one]
[2]; [5]
  type of inhibition from preincubation dilution: reversible covalent inhibitor

## O=c1c2ccccc2[se]n1-c1cccc(Cl)c1 [Compound E19, 2-(3-Chlorophenyl)benzo[d][1,2]selenazol-3(2H)-one]
[2]; [5]
  type of inhibition from preincubation dilution: rapidly reversible inhibitor

## O=c1c2ccccc2[se]n1-c1cc(Cl)cc(Cl)c1 [Compound E20, 2-(3,5-Dichlorophenyl)benzo[d][1,2]selenazol-3(2H)-one]
[2]; [5]
  type of inhibition from preincubation dilution: reversible covalent inhibitor

## O=c1c2ccccc2[se]n1-c1cccc(C(F)(F)F)c1 [Compound E24, 2-(3-(Trifluoromethyl)phenyl)benzo[d][1,2]selenazol-3(2H)-one]
[4]
  reduction of viral RNA levels, intracellular fraction: ~50%
  reduction of viral RNA levels, supernatant fraction: ~50%
[4]; 5 μM, 72 h
  toxicity toward the organoids: no observable toxicity

## N#Cc1cccc(-n2[se]c3ccccc3c2=O)c1 [Compound E25, 3-(3-Oxobenzo[d][1,2]selenazol-2(3H)-yl)benzonitrile]
[2]; [5]
  type of inhibition from preincubation dilution: some recovery of the enzymatic activity but not a complete recovery; also recorded: reversible covalent inhibitor
